The test system of one assay is Nucleic Acid. Description: (§1) Maximal non-effective concentration against bacterial DNA gyrase. Format: nucleic-acid assay.
The target of assay [1] is Matrix metalloproteinase-9 (Homo sapiens) (UniProt P14780). The assay is described as follows: Inhibition of gelatinase B, matrix metalloprotease-9 (MMP-9) at 5000 uM.
Assay [2] has as its target DNA topoisomerase 2-beta (Homo sapiens) (UniProt Q02880). Described as §1.

Chain of DNA topoisomerase 2-beta (Homo sapiens) (Q02880 whole entry): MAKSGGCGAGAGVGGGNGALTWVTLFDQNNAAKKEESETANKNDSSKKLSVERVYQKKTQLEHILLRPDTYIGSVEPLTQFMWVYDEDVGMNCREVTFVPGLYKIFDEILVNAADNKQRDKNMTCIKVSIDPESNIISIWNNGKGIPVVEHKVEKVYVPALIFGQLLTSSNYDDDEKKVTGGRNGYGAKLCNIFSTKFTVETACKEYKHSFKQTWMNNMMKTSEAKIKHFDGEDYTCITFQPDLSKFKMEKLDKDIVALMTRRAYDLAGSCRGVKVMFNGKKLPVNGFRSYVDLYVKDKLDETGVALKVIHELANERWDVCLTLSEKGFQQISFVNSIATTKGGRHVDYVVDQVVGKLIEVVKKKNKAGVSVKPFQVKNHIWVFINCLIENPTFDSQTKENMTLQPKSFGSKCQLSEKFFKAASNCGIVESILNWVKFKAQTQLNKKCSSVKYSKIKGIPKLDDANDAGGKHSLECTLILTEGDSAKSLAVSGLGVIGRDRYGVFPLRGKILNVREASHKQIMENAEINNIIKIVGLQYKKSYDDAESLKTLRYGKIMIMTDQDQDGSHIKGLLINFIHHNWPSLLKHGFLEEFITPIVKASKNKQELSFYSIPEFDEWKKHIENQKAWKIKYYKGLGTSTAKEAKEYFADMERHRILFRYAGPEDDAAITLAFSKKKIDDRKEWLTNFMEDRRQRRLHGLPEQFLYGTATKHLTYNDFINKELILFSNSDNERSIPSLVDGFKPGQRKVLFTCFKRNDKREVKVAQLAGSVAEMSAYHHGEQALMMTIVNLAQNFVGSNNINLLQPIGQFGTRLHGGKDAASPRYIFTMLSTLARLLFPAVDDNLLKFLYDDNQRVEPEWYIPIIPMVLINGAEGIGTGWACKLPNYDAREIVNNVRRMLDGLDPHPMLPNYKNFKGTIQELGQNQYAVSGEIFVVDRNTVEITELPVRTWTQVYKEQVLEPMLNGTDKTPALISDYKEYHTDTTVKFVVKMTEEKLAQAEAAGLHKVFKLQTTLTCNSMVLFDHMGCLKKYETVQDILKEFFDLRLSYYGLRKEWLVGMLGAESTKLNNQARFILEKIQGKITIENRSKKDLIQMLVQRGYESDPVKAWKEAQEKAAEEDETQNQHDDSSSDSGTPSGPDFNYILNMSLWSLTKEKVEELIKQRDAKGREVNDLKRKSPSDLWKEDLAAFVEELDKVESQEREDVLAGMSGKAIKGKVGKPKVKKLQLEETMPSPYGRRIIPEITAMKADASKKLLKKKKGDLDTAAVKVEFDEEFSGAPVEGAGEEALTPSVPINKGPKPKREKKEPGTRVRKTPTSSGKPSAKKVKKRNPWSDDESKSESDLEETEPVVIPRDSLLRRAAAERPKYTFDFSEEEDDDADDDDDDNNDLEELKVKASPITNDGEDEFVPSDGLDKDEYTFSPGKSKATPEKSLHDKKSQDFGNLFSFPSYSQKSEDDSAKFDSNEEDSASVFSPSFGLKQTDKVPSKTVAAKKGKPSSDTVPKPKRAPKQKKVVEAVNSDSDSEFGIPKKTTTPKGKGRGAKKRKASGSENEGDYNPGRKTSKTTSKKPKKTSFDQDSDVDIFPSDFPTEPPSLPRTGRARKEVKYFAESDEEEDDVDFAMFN
Chain of Matrix metalloproteinase-9 (Homo sapiens) (P14780 whole entry): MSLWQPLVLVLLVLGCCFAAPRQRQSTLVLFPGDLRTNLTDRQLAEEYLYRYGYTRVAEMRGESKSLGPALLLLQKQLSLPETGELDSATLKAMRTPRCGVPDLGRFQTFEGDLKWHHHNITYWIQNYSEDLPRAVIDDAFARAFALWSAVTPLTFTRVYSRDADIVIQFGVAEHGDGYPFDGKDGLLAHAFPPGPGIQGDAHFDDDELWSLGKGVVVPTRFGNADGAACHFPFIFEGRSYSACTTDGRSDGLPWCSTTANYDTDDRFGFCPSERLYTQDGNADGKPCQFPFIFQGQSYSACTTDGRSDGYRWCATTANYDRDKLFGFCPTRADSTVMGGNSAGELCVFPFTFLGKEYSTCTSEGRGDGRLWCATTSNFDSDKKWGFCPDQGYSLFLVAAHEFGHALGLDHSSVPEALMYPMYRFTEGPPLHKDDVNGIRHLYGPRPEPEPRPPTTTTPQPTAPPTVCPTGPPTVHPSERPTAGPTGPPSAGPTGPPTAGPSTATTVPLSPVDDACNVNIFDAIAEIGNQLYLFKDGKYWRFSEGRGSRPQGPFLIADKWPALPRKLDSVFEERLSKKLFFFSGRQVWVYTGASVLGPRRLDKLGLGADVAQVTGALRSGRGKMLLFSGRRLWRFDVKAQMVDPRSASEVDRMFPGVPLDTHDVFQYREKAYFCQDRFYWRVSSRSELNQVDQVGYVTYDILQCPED

Turning to `c1ccc(-c2[nH]nc3ccccc23)cc1`, the MNEC in the assay on Nucleic Acid is 41 µM.
Compound `Cc1cc(=O)oc2cc(SCc3n[nH]c4ccccc34)ccc12` had an MNEC in the assay with Nucleic Acid of 25 µM.
For `NCc1nc2ccccc2[nH]1`, the inhibition (commonly the relative decrease from the control value, in per cent) in assay [1] is 65%.
`Cc1cc(=O)oc2cc(SCc3n[nH]c4cccc(OCc5ccc(C(C)(C)C)cc5)c34)ccc12` yielded an MNEC in assay [2] of 0.062 µM.

Source of the values: ChEMBL document CHEMBL1148343, “Fragment-based drug discovery” (J Med Chem, 2004).
